Experiment [1] deals with T1, Recombinant (1-346) HPK1 (h) (Homo sapiens, UniProt Q92918).
T1 construct: Recombinant (1-346) HPK1 (h) is incubated with 8 mM MOPS pH 7.0
T1 sequence (Q92918 1-346): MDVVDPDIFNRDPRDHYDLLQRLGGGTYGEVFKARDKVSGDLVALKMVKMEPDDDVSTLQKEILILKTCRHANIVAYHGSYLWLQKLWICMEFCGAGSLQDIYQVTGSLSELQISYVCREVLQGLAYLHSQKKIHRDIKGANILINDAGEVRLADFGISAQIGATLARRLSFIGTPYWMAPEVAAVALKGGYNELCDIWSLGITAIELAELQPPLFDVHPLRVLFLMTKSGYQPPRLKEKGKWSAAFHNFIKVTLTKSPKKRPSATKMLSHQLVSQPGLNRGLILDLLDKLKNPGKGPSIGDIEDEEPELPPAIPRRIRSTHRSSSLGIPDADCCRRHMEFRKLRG
The experiment is described as follows: HPK1 human STE kinase enzymatic radiometric assay. It counts as biochemical. The conditions noted are these: read-out: HPK1 IC50 nM Range. In a few lines:
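Compounds in 3-fold, 9-point serial dilution; kinase (residues 1-346) phosphorylates myelin basic protein (0.33 mg/mL) using [gamma-33P]-ATP at pH 7.0 (MOPS, EDTA, Mg acetate) for 40 min, room temperature. Acid-quenched mixture filtered onto P30 mats; incorporated radioactivity read by scintillation counting.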

The target of the next experiment is Lck (h) (Homo sapiens, UniProt P06239). Nature of the experiment: Lck human STE kinase enzymatic radiometric assay. The conditions noted are these: read-out: Lck IC50 nM Range. The experiment is classed as biochemical.

This note sets out measurements from US20240425479A1, “HALO-SUBSTITUTED AMINO AZA-HETEROARYL COMPOUNDS AS INHIBITORS OF THE HAEMATOPOIETIC PROGENITOR KINASE 1 (HPK1)” (priority 2021, published 2024).

Chain of Lck (h) (P06239 whole entry): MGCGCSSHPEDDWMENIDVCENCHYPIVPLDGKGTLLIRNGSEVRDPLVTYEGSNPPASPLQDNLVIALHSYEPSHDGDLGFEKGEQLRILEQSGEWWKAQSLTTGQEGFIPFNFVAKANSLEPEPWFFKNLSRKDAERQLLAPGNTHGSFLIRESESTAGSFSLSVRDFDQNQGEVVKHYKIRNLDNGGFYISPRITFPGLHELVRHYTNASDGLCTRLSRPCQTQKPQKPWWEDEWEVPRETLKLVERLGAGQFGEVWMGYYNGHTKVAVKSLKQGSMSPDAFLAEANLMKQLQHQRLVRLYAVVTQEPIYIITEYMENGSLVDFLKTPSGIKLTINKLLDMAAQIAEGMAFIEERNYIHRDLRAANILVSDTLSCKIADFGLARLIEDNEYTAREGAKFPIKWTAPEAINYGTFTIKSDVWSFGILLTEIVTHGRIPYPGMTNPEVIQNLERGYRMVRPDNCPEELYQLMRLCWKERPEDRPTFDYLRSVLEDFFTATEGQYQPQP

Consider `CN1C[C@H]2C[C@@]2(c2ccc(-c3nc(-c4cc5c(cc4F)C(=O)NCC5)c(N)nc3F)cc2)C1` [Example I-3, 6-(3-amino-5-fluoro-6-(4-((1R,5S)-3-methyl-3-azabicyclo[3.1.0]hexan-1-yl)phenyl)pyrazin-2-yl)-7-fluoro-3,4-dihydroisoquinolin-1(2H)-one], for which the values for the IC50 (in experiment [1]; at Lck (h)) were 0.1 to 10 nM and over 1000 nM, respectively.

Consider `CN1C[C@@H]2C[C@]2(c2ccc(-c3nc(-c4cc5c(cc4F)C(=O)NCC5)c(N)nc3F)cc2)C1` [Example I-5, 6-(3-amino-5-fluoro-6-(4-((1S,5R)-3-methyl-3-azabicyclo[3.1.0]hexan-1-yl)phenyl)pyrazin-2-yl)-7-fluoro-3,4-dihydroisoquinolin-1(2H)-one], for which the results for the IC50 (in experiment [1]; at Lck (h)) were 0.1 to 10 nM and over 1000 nM, respectively.

With `COc1ccc(-c2nc(-c3ccc4c(=O)[nH]cc(F)c4c3)c(N)nc2F)cc1CN(C)C` [Example I-267, 6-(3-amino-6-(3-((dimethylamino)methyl)-4-methoxyphenyl)-5-fluoropyrazin-2-yl)-4-fluoroisoquinolin-1(2H)-one], the figures for the IC50 (in experiment [1]; on Lck (h)) were 0.1 to 10 nM and over 1000 nM, respectively.

As to `Nc1nc(F)c(-c2ccc(C3CCOCC3)c(CN3CCC3)c2)nc1-c1cc(F)c2c(c1)CCNC2=O` [Example I-171, 6-(3-amino-6-(3-(azetidin-1-ylmethyl)-4-(tetrahydro-2H-pyran-4-yl)phenyl)-5-fluoropyrazin-2-yl)-8-fluoro-3,4-dihydroisoquinolin-1(2H)-one], the IC50 (as a rule, the point on the concentration scale where inhibition reaches its midpoint) in experiment [1] fell in the range of 0.1 to 10 nM; on Lck (h) it was 101 to 1000 nM.
